From BindingDB's records for doi:10.1021/cb900195c (University of Pittsburgh, 2009)

Experiments:
[1] = target: Protein Nef/Tyrosine-protein kinase HCK (Homo sapiens, UniProt P03406+P08631); test: In Vitro Kinase Assay; settings: 25 °C
From the text: (§1) In vitro kinase activity of Nef-Hck complex and Hck alone using Z'-lyte kinase assay system and Tyr2 peptide substrate from Invitrogen.

[2] = target: Tyrosine-protein kinase HCK (Homo sapiens, UniProt P08631); test: In Vitro Kinase Assay; settings: 25 °C
Sequence of Tyrosine-protein kinase HCK (P08631 whole entry): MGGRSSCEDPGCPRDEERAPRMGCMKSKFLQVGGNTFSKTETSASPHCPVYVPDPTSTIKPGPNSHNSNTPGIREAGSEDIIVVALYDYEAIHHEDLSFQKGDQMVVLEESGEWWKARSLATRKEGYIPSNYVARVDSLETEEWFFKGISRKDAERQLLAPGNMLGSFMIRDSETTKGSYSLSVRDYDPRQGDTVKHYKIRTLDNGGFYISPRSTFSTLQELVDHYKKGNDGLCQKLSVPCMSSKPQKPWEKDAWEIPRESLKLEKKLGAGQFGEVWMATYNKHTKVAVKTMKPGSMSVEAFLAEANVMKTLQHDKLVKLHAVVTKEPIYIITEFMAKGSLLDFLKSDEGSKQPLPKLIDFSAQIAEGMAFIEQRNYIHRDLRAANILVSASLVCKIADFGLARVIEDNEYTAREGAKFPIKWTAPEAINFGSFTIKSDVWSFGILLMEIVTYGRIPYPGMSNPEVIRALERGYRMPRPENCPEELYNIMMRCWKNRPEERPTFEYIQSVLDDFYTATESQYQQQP
From the text: as §1

Sequence of Protein Nef/Tyrosine-protein kinase HCK (P08631 whole entry, other chains not shown): as the sequence (P08631 whole entry) above

OCCCCNc1ncnc2oc(-c3ccccc3)c(-c3ccccc3)c12 [DFP-4AB]
IC50 [1]: 16 µM
IC50 [2]: > 30 µM

c1ccc(-c2oc3ncnc(NCCCc4ccco4)c3c2-c2ccccc2)cc1 [DFP-4APF]
IC50 [1]: 2 µM
IC50 [2]: > 30 µM

OCCCNc1ncnc2oc(-c3ccccc3)c(-c3ccccc3)c12 [DFP-4AP]
IC50 [1]: 5.1 µM
IC50 [2]: 12.8 µM

Nc1ncnc2oc(-c3ccccc3)c(-c3ccccc3)c12 [DFP-4A]
IC50 [1]: > 30 µM
IC50 [2]: > 30 µM
